# Measurements from patent US20240316129A1, “Bacteria and Herbal Extract Nutraceutical Blends for Lung Health Maintenance” (The UAB Research Foundation, priority 2021, published 2024).
# Experiments:
# [1] = test system: newborn wild type C57BL/6 mice; assay: Loss of function of Ac-PGP by RTR treatment in LPS-treated newborn mice; assay type: in vivo, mouse; conditions: under noxious stimuli, LPS+RTR compared to LPS alone, P<0.05
# Text: FIG. 9A illustrates that newborn wild type C57BL/6 mice were randomized to treatment with RTR, LPS, and RTR+LPS as well as normoxia and noxious stimuli.
# mice = conditions: normoxia and under noxious stimuli, P<0.05
# RSB11 = assay: Culture growth of probiotic strain RSB11 with herbal extracts or Vitamin D; assay type: cell-based, Lactobacillus plantarum; conditions: number of colonies per plate
# RSB12 = assay: Culture growth of probiotic strain RSB12 with herbal extracts or Vitamin D; assay type: cell-based, Lactobacillus acidophilus; conditions: number of colonies per plate
# RSB13 = assay: Culture growth of probiotic strain RSB13 with herbal extracts or Vitamin D; assay type: cell-based, Lactobacillus rhamnosus; conditions: number of colonies per plate
# C57BL/6 mouse pups = assay: In vivo (mouse) dysbiosis model of chronic lung disease, LPS-treated pups
# [2] = LPS-treated mice compared to controls, P<0.05
substance,measurement,setting,value
arginine-threonine-arginine [RTR],MPO concentrations,[1],significantly lower
same,RAC,[1],significantly higher
same,RVH,[1],significantly less severe
N-acetyl-Proline-Glycine-Proline [Ac-PGP],MPO concentration,mice; ELISA,increased
same,NE concentrations in BALF,mice,increased
same,RAC counts,mice,decreased
same,right ventricular hypertrophy (RVH),mice,increased
Vitamin D,culture growth of RSB11,RSB11,do not have an inhibitory effect
same,culture growth of RSB12,RSB12,do not have an inhibitory effect
same,culture growth of RSB13,RSB13,do not have an inhibitory effect
lipopolysaccharide [LPS],lung tissue histology,C57BL/6 mouse pups; LPS-treated C57BL/6 mouse pups,alveolar hypoplasia and simplification
same,myeloperoxidase (MPO) levels in BALF,C57BL/6 mouse pups; [2],significantly increased
same,neutrophil elastase (NE) levels in BALF,C57BL/6 mouse pups; [2],significantly increased
same,radial alveolar counts (RAC),C57BL/6 mouse pups; [2],significantly decreased
same,Ac-PGP levels in BALF,"C57BL/6 mouse pups; LPS-treated mice compared to controls, by HPLC, P<0.05",significantly increased
